Test results as given in ChEMBL document CHEMBL1201862, “PubChem BioAssay data set” (2004).
The source made the active and inactive calls.

Key:
Beta-galactosidase = Beta-galactosidase (Escherichia coli, UniProt Q8VNN2); experiment: PubChem AID 485352; type: functional
[1] = molecular target: T1, Type-1 angiotensin II receptor (Homo sapiens, UniProt P30556); experiment: AT1 receptor antagonists, dose response, selectivity assay for APJ receptor antagonist project, cell-based, uHTS hits (AID 463214); type: functional;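 note: antagonist potency against angiotensin II stimulated AT1 response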
T1 sequence (P30556 whole entry): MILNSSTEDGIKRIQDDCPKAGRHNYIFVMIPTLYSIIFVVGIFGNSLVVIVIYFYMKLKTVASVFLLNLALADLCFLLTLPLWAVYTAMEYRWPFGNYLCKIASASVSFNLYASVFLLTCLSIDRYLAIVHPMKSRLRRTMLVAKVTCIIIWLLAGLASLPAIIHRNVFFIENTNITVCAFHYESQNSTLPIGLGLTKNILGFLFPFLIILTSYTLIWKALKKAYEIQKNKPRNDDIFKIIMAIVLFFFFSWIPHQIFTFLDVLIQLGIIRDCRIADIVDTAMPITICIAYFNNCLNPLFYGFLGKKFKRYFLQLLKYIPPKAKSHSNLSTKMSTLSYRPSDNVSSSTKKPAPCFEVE

[2] = molecular target: Protein-tyrosine kinase 2-beta (Homo sapiens, UniProt Q14289);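 note: potency of inhibitors of PYK2 kinase phosphorylation of poly-GT substrate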
[3] = molecular target: Glyceraldehyde-3-phosphate dehydrogenase (Homo sapiens, UniProt P04406)
Bcl-2-related protein A1 [4] = molecular target: T2, Bcl-2-related protein A1 (Mus musculus, UniProt Q07440); experiment: Bfl-1 inhibitors blocking BH3 peptide binding, confirmation, biochemical, TR-FRET, mouse Bfl-1 (AID 621);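 note: TR-FRET binding of GST-Bfl-1 to FITC-labelled Bid peptide via terbium antibody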
T2 sequence (Q07440 whole entry): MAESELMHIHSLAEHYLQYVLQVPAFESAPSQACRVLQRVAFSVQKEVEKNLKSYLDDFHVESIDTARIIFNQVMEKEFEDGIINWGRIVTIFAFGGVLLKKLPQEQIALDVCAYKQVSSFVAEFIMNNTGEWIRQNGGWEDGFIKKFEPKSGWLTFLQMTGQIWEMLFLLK

Bcl-2-related protein A1 [5] = molecular target: T2, Bcl-2-related protein A1; experiment: Bfl-1 binding inhibitors, SAR follow-up, biochemical, fluorescence polarization (AID 1070)
[6] = molecular target: Epstein-Barr nuclear antigen 1 (Epstein-Barr virus (strain B95-8) (HHV-4) (Human herpesvirus 4), UniProt P03211); experiment: EBNA-1 inhibitors, dose response, biochemical, fluorescence polarization, 1536-well (AID 2381); parameters: species or system human gammaherpesvirus 4;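 note: fluorescence polarization of a Cy5 DNA probe bound by EBNA-1 protein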
[7] = molecular target: Lytic switch protein BZLF1 (Epstein-Barr virus (strain B95-8) (HHV-4) (Human herpesvirus 4), UniProt P03206); experiment: EBV ZTA inhibitors, dose response, counter-screen for EBNA-1 inhibitor project, biochemical, fluorescence polarization, Epstein-Barr virus, 1536-well (AID 2377); parameters: species or system human gammaherpesvirus 4;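 note: fluorescence polarization of Cy5-labelled ZRE DNA probe bound by purified Zta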
Leucine aminopeptidase = molecular target: T3, Leucine aminopeptidase (Plasmodium falciparum 3D7, UniProt Q8IL11); experiment: P. falciparum M17LAP inhibitors, primary screen, biochemical, fluorogenic H-Leu-NHMec substrate, 1536-well (AID 1619); type: functional
T3 sequence (Q8IL11 whole entry): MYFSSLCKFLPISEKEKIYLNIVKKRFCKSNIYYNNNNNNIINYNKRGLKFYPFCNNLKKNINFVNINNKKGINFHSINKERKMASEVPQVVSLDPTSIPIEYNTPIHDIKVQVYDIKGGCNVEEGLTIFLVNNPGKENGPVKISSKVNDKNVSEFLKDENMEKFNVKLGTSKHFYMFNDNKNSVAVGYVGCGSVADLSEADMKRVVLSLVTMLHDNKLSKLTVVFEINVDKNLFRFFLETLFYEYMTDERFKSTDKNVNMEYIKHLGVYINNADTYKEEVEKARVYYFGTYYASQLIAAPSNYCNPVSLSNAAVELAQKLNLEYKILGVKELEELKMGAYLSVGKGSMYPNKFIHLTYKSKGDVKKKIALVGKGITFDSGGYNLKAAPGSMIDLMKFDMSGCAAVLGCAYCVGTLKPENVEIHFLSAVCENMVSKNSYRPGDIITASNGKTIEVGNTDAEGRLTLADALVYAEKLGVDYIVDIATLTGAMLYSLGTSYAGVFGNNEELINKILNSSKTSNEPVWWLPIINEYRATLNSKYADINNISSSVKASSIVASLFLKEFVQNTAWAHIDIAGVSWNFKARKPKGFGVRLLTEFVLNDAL

Aspartyl aminopeptidase = Aspartyl aminopeptidase (Plasmodium falciparum 3D7, UniProt Q8I2J3); experiment: Counterscreen for inhibitors of M1 and M17 aminopeptidases: QFRET-based biochemical high throughput dose response assay for inhibitors of the Plasmodium falciparum M18 Aspartyl Aminopeptidase (PFM18AAP). [Related PubChem assays: 1619 (Screening assay (M17LAP inhibitors).), 1445 (Screening assay (M1AAP inhibitors).)]
Procathepsin L = Procathepsin L (Homo sapiens, UniProt P07711); experiment: cathepsin L inhibitors, dose response, counter-screen for M1/M17 aminopeptidase inhibitor project, biochemical, QFRET, 1536-well (AID 2214)
Cytochrome P450 2C19 = Cytochrome P450 2C19 (Homo sapiens, UniProt P33261); experiment: Cytochrome panel assay with activity outcomes. Panel member name: p450-cyp2c19 Compounds with AC50 equal or less than 10 uM are considered active; type: functional; settings: read-out: AC50
Cytochrome P450 2C9 = Cytochrome P450 2C9 (Homo sapiens, UniProt P11712)
Vero [8] = experiment: host cell cytotoxicity of antiviral hits, dose response, cytotoxicity control for West Nile virus antiviral project, secondary assay (AID 1650); type: functional; settings: Chlorocebus sabaeus
Vero [9] = experiment: West Nile virus antiviral activity, cell-based, CPE readout (AID 1621); type: functional; settings: Chlorocebus sabaeus
Genome polyprotein = Genome polyprotein (Hepatitis C virus, UniProt Q2Q167); experiment: HCV core protein dimerization inhibitors, dose response, biochemical, TR-FRET (AID 2159); parameters: species or system Hepacivirus hominis;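 note: blocks dimerization of HCV core protein measured by TR-FRET between tagged core106 pairs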
Estrogen receptor = molecular target: T4, Estrogen receptor (Homo sapiens, UniProt P03372);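 note: potency for inhibiting coactivator peptide recruitment to the receptor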
T4 sequence (P03372 whole entry): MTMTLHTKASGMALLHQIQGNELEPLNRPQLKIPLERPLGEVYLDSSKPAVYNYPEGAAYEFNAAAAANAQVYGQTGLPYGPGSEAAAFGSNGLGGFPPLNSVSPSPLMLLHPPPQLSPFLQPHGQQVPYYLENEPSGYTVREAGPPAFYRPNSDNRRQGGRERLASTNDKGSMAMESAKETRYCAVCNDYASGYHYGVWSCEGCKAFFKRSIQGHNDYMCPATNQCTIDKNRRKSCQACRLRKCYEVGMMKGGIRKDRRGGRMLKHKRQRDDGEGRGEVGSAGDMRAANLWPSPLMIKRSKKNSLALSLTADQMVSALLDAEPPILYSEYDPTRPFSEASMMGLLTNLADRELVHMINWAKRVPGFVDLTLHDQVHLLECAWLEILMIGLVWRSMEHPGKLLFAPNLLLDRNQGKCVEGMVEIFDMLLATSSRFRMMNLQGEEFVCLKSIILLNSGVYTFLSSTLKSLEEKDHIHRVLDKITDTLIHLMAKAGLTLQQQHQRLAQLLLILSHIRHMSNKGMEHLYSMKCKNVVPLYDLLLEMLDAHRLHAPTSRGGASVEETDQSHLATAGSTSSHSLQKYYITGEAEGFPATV

Estrogen receptor beta [10] = molecular target: T5, Estrogen receptor beta (Homo sapiens, UniProt Q92731);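 note: recombinant ER-beta bound to coactivator SRC1 peptide in presence of estradiol agonist; inhibitors block coactivator peptide binding and lower the FRET signal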
Estrogen receptor beta [11] = molecular target: T5, Estrogen receptor beta; experiment: ERβ–SRC-3 coactivator interaction inhibitors, confirmation, orthogonal assay, biochemical, ELISA, streptavidin-HRP readout (AID 1060)
[12] = molecular target: T6, Dual specificity protein phosphatase 6 (Rattus norvegicus, UniProt Q64346); experiment: MKP-3 phosphatase inhibitors, primary screen, biochemical, rat enzyme, in vitro (AID 425)
T6 sequence (Q64346 whole entry): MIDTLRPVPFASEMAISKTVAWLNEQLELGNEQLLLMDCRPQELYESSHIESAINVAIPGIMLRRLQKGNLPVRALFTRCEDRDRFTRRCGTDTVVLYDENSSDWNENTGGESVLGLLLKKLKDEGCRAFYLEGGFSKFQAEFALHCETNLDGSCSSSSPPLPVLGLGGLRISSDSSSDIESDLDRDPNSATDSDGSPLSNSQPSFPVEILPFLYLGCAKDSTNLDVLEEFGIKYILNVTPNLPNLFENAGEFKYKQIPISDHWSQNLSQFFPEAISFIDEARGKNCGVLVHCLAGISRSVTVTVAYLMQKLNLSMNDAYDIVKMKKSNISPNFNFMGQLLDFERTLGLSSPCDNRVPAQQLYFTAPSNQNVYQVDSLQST

[13] = molecular target: Eukaryotic translation initiation factor 4E (Mus musculus, UniProt P63073); experiment: eIF4E–eIF4G protein interaction inhibitors, dose response, biochemical, TR-FRET (AID 855); type: functional;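 note: potency for disrupting eIF4E binding to eIF4GI seen as loss of FRET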
[14] = molecular target: T7, Carboxy-terminal domain RNA polymerase II polypeptide A small phosphatase 1 (Homo sapiens, UniProt Q9GZU7); experiment: inhibitors of CTDSP1, concentration-response testing, biochemical assay, absorbance-based, actives from ultra-high-throughput screening (AID 540297); type: functional
T7 sequence (Q9GZU7 whole entry): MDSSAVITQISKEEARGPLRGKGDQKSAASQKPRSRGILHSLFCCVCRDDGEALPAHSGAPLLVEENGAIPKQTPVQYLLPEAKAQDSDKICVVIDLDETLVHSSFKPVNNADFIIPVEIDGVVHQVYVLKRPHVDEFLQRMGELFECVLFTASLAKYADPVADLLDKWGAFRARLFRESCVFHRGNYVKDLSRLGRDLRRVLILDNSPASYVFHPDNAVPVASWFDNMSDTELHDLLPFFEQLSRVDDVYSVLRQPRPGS

T5 sequence (Q92731 whole entry): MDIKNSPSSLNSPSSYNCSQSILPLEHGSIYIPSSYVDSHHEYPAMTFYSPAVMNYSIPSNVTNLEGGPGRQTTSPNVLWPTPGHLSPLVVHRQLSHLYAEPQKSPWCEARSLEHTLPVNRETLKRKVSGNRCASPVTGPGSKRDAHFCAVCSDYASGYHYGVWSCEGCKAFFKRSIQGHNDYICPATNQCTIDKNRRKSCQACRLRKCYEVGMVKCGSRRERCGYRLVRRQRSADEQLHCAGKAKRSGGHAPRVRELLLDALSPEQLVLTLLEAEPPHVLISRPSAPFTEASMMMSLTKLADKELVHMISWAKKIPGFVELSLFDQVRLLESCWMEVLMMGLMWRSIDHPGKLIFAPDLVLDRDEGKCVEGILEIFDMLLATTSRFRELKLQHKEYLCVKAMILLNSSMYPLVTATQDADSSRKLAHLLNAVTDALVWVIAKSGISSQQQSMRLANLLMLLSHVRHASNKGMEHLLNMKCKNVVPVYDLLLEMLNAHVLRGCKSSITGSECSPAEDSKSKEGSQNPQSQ
Cytochrome P450 2C19, sequence (P33261 whole entry): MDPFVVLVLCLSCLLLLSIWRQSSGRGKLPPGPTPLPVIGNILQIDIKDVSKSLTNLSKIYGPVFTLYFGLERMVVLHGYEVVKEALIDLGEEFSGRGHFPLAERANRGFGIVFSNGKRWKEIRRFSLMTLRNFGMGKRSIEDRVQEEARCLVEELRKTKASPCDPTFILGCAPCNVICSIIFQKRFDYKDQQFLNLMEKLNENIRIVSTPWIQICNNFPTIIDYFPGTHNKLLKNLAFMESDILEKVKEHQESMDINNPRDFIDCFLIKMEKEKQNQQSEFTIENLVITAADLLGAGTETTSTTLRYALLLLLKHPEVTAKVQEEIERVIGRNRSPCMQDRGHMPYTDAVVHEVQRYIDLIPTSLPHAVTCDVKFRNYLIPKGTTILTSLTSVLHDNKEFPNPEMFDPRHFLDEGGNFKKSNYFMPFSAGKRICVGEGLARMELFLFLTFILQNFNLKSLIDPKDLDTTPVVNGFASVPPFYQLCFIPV
Lytic switch protein BZLF1, sequence (P03206 whole entry): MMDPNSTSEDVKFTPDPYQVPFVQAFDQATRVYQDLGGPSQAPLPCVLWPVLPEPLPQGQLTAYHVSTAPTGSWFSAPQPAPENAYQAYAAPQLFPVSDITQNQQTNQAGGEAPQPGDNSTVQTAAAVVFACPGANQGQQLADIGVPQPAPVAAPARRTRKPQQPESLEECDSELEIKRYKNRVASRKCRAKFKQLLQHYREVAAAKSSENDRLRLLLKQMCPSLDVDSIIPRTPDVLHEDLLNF
Beta-galactosidase, sequence (Q8VNN2 whole entry): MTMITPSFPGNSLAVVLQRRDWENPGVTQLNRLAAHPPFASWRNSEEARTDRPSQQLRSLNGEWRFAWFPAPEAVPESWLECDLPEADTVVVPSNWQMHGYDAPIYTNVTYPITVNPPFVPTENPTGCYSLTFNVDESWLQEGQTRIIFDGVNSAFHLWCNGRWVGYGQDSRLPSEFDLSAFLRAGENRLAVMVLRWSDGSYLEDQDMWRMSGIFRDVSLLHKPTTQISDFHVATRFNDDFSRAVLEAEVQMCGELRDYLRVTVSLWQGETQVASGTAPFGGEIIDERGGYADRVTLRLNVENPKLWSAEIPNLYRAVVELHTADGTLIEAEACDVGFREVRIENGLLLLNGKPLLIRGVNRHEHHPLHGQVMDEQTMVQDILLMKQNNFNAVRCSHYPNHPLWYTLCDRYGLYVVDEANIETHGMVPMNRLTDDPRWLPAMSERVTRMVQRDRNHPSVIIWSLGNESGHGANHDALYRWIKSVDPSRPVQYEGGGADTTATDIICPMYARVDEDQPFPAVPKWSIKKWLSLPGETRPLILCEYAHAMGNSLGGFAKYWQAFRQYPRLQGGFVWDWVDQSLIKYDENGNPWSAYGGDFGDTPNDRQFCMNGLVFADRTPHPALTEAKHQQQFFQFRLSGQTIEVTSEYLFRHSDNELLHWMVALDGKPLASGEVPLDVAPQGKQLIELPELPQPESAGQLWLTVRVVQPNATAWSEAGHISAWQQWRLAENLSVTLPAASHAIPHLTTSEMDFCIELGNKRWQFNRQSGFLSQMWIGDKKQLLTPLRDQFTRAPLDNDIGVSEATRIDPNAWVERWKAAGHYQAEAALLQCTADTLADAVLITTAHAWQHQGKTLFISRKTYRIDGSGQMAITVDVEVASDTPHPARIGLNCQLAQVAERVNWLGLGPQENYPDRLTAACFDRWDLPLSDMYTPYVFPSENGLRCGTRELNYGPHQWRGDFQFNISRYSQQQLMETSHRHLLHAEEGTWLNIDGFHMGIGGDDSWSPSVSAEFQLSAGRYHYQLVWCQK
Epstein-Barr nuclear antigen 1, sequence (P03211 whole entry): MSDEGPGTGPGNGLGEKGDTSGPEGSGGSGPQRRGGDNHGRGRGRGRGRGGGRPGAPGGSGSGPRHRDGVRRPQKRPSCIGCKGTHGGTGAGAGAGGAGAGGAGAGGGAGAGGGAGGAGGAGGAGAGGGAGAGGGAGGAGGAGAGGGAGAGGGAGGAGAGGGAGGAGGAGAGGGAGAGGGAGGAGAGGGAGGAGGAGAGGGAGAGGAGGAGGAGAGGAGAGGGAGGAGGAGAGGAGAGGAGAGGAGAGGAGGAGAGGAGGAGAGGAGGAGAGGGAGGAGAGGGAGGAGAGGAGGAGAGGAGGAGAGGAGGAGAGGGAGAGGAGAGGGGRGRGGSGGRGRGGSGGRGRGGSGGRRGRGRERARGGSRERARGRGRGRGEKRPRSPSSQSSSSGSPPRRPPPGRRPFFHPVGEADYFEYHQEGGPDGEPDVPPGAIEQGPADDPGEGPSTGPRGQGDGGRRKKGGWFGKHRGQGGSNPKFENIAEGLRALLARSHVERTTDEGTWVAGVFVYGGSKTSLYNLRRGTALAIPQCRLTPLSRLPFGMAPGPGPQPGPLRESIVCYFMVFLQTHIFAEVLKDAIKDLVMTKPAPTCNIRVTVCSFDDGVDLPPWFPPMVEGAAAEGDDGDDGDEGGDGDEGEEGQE
Aspartyl aminopeptidase, sequence (Q8I2J3 whole entry): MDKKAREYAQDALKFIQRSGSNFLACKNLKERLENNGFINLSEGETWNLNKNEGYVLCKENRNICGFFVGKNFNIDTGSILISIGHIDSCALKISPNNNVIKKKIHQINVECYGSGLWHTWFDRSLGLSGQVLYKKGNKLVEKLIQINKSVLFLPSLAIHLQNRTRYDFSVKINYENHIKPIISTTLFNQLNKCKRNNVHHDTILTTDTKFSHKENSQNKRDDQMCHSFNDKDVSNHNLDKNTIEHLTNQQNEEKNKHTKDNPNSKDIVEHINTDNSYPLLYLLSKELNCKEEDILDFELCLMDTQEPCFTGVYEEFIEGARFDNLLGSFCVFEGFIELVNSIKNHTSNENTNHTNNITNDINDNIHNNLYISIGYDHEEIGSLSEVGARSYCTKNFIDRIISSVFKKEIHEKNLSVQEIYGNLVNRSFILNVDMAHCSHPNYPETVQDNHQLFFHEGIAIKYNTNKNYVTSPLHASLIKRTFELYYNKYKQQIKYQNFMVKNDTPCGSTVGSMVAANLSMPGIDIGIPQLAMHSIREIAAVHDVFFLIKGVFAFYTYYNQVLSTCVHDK
Eukaryotic translation initiation factor 4E, sequence (P63073 whole entry, the tested form may be a part): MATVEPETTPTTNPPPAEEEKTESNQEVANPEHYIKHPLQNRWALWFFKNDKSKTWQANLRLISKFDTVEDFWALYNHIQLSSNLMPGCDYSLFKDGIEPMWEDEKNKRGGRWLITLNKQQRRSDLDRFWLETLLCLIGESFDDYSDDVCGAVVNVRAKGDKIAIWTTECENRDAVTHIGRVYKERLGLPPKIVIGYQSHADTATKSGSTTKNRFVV
Protein-tyrosine kinase 2-beta, sequence (Q14289 whole entry): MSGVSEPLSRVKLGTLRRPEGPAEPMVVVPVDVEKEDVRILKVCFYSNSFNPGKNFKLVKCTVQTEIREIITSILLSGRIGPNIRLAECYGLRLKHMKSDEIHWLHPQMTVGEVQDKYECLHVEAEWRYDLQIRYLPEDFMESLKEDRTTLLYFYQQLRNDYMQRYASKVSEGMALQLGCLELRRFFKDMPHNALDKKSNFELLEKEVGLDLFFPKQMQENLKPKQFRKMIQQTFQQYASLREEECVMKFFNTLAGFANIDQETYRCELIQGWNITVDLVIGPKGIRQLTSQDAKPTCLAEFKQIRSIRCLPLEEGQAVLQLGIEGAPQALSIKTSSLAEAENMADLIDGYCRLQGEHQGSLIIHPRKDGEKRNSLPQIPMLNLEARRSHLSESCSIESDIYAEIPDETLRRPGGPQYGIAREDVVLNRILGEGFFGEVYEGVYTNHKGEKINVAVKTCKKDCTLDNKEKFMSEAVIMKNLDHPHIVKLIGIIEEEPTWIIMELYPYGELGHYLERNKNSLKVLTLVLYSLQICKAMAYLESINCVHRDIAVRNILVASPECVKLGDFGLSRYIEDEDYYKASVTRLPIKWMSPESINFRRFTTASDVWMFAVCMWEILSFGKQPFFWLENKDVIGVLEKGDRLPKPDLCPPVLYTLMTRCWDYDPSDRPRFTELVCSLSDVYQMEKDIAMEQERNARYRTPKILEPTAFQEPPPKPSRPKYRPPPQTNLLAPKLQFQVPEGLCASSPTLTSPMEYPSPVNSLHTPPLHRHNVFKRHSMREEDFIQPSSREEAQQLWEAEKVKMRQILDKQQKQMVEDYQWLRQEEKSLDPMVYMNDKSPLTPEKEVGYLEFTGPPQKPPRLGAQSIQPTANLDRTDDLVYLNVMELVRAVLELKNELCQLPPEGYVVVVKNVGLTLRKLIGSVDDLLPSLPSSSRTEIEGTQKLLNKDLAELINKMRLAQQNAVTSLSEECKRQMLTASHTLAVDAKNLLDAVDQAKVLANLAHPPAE
Genome polyprotein, sequence (Q2Q167 whole entry): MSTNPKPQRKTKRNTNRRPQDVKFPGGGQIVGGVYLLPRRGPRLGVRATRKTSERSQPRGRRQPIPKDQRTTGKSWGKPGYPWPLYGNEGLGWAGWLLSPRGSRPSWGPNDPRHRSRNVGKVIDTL

**Q.** What does the source list for CCOCCO/C(O)=C1\C(C)=NC2=C(C(=O)CC(c3cccs3)C2)C1c1ccsc1 (configuration not stated)?
**A.** EC50 (Beta-galactosidase): > 40 µM (inactive); IC50 [1]: > 40 µM (not active); IC50 [2]: > 69.5 µM (not active)

**Q.** For O=C1C(Cl)=C(N2CCOCC2)C(=O)N1c1ccc([N+](=O)[O-])cc1, which IC50 [3] is on record?
**A.** The IC50 was > 100 µM (not active).

**Q.** What about the IC50 (Bcl-2-related protein A1 [4]) of the same compound?
**A.** The IC50 was 2.29 µM (active).

**Q.** What about the IC50 (Bcl-2-related protein A1 [5]) of the same compound?
**A.** The IC50 was 1.49 µM (active).

**Q.** Cc1ccc(NC(=O)CSc2ccc(-c3ccccn3)nn2)cc1F was tested. Which IC50 [6] did it give?
**A.** The IC50 was > 16.4 µM (not active).

**Q.** What about the IC50 [7] of the same compound?
**A.** The IC50 was > 111 µM (not active).

**Q.** For CCOC(=O)c1c(-c2ccc(C)cc2)csc1NC(=O)C1CC=CCC1C(=O)O (configuration not stated), which IC50 (Leucine aminopeptidase) is on record?
**A.** The IC50 was 4.8 µM (active).

**Q.** And the IC50 (Aspartyl aminopeptidase)?
**A.** Its IC50 is > 73.5 µM (not active).

**Q.** And the IC50 (Procathepsin L)?
**A.** The IC50 was > 59.6 µM (not active).

**Q.** And the AC50 (Cytochrome P450 2C19)?
**A.** Its AC50 is 28.2 µM (inconclusive).

**Q.** And the AC50 (Cytochrome P450 2C9)?
**A.** The AC50 was 25.1 µM (inconclusive).

**Q.** With COc1ccc(C2c3ccc4ccccc4c3Oc3ncn(CCCO)c(=N)c32)cc1OC (configuration not stated) as the compound, how does the CC50 (Vero [8]) read?
**A.** Its CC50 is 19.7 µM (active).

**Q.** And the IC50 (Vero [9])?
**A.** Its IC50 is 21.5 µM (active).

**Q.** Which IC50 (Genome polyprotein) does the source give for O=C1Nc2ccccc2SC(c2ccccc2)C1O (configuration not stated) here?
**A.** Its IC50 is > 49.8 µM (not active).

**Q.** And the IC50 (Estrogen receptor)?
**A.** The IC50 was 3.02 µM (active).

**Q.** What about the IC50 (Estrogen receptor beta [10]) of the same compound?
**A.** Its IC50 is < 1.56 µM (active).

**Q.** And the IC50 (Estrogen receptor beta [11])?
**A.** Its IC50 is 0.161 µM (not active).

**Q.** What about the IC50 [12] of the same compound?
**A.** The IC50 was > 10 µM (not active).

**Q.** And the IC50 [13]?
**A.** Its IC50 is 35.4 µM (inactive).

**Q.** And the IC50 [14]?
**A.** The IC50 was 5.33 µM (active).
